Assay results published in patent US7531629B2, “Tumor associated antigen peptides and use of same as anti-tumor vaccines” (Yeda Research and Development Co. Ltd., priority 1998, dated 2009).
Values belong to the sequence of their own block, whether it stands above or below them.

Assays:
RMA-S-HhD cells [1] = experiment: CTL from peptide-immunized HhD mice against loaded RMA-S-HhD target cells; format: in vivo; conditions: for ability to evoke specific CTL responses (lysis of peptide-loaded target cells): additional Uroplakin Ib, II, III peptides, three weekly immunizations, FIGS. 23a-e; for lysis of RMA-S-HhD target cells loaded with MUC-1 peptide: immunization with a pool of the MUC-1-derived synthetic peptides; for lysis of RMA-S-HhD targets loaded with homologous BA-46 peptide: CTL from HhD mice immunized with BA-46 peptides; for lymphocyte response specifically lysing CRIPTO-1 peptide-loaded target cells: HhD mice immunized with CRIPTO-1 peptide pools, FIGS. 24a-c
Method: (§1) Vaccination: Mice were immunized intraperitonealy three times at 7-day intervals, with 2×10^6 irradiated (5,000 rad) tumor cells, or with peptide-loaded RMA-S-HhD-B7.1 transfectants. Peptide loading of RMA-S-HhD-B7.1 cells was performed as follows: After washing the cells 3 times in PBS, the surface expression of HhD monochins was stabilized by a 4 hours culture at 26° C. Synthetic peptides, or peptide extracts were added to 10×10^6 cells in 1 ml of opti-MEM (Gibco) medium to a concentration of 100 μM or 1 mM, respectively. The cells were incubated at 26° C. and for additional 3 hours at 37° C. Peptide loaded RMA-S-HhDσ-σB7.1 cells were irradiated (5000 rad), washed, resuspended in PBS and injected into mice. In mixed synthetic vaccines, RMA-S-HhD-B7.1 cells were loaded separately with each peptide and pooled before vaccination.
(§2) In vitro cytotoxicity assays: Mice were immunized intraperitonealy three times at 7-day intervals, with 2×10^6 irradiated (5,000 rad) tumor cells, or with peptide-loaded RMA-S-HhD-B7.1 transfectants. Spleens were removed on day 10 after the last immunization and splenocytes were restimulated in vitro with either irradiated tumor cells (for mice immunized with tumor cells) or with lymphocytes pulsed with 100 μM synthetic peptides or 1 mM patients-derived extract in opti-MEM (Gibco) medium. Restimulated lymphocytes were maintained in RPMI 1640 medium containing 10% FCS, 1 mM glutamine, combined antibiotics, 1 mM sodium pyruvate, 10 mM HEPES, pH 7.4, 5×10^−5 M β-mercaptoethanol, and 1% nonessential amino acids (RPMI-HEPES medium) for 5 days. Viable lymphocytes (effector cells), were separated by lymphocyte-M (Cedarlane, Ontario, Canada) centrifugation, resuspended in RPMI-HEPES medium, and admixed at different ratios with 5×10^3 peptide loaded RMA-S-HhD cells, previously loaded with different peptides (see vaccination). CTL assays were performed in U-shaped microtiter wells, at 37° C., 5% CO2 for 5 hours. Cultures were terminated by centrifugation at 1,000 rpm for 10 minutes at 4° C. A total of 100 μl of the supernatants was mixed with scintillation fluids and counted in a beta counter. […] Spontaneous release was determined by incubation of 100 μl-labeled target cells with 100 μl of medium. Maximal release was determined by solubilization of target cells in 100 μl 0.1 M NaOH.
CTL induced in HhD mice recognize the same UP II peptides as human PBL: The immunogenicity of Uroplakin homologue peptides was also evaluated in a mouse model, in which the murine MHC class I genes are not expressed (D^b−/−, β2-microglobulin −/−, double knockout) and which is transgenic for a HLA-A2 and human β2-microglobulin monochain (HhD mice). The advantage of a HLA-A2 transgenic mouse model is that CTL epitopes can be detected more easily and reproducibly, without lengthy and repeated in vitro stimulations. The murine MHC knockout mice used herein has the additional advantage that their CTL repertoire is only HLA-A2 restricted and the CTL response against human tumor extract or human cell lines is not masked by a potential xenogeneic response. HhD mice were immunized with the 7 Uroplakin II homologue peptides or with the same TCC peptide extract used for stimulation of patient's PBL. Lymphocytes were obtained from the spleens of these mice and restimulated in vitro once with the corresponding peptides. […]

MDA-MB-157-HhD cells = experiment: Lysis of MDA-MB-157-HhD breast carcinoma cells by CTL from immunized HhD mice; format: in vitro; conditions: CTL from HhD mice immunized with the named substance
[2] = MHC stabilization assay: peptide binding to HhD on RMA-S-HhD cells, indirect FACS; design: species or system human; conditions: peptide loaded RMA-S-HhD cells
Method: Measurement of peptide binding by stabilization of cell surface MHC: Peptide binding to HhD was measured by stabilization of HhD on RMA-S transfectants, using an indirect FACS assay as follows: 5×10^5 peptide loaded TAP-2 deficient RMA-S-HhD cells (see vaccination), were incubated with anti HLA monoclonal antibodies for 30 minutes at 4° C. After washing the cells with PBS-0.5%, BSA+0.1%, sodium azide, the second antibody, goat anti mouse-FITC (Jackson Lab.), was applied for 30 minutes at 4° C. Following washing, the amount of bound antibodies was detected by FACSscan […].
Mouse monoclonal antibodies. B-9-12, w6/32 (anti HLA A, B, C) and B.B7.2 (anti HLA-A2.1) were used for analyses.
Cytotoxic activity of human peripheral blood lymphocytes (PBL) against target cells pulsed with Uroplakin II peptide homologues: The human UP II amino acid sequence was screened for potential HLA-A2 binding, 9 amino acids peptides by a HLA binding motif program. We chose that particular HLA allele because it is present in 45% of the population. Seven 9-mer peptides, which were predicted to bind with high affinity to HLA-A2 were selected and synthesized (Table 1). The binding of these peptides to HLA-A2 was tested by an MHC stabilization assay utilizing TAP negative cells, which can present exogeneously bound peptides. The RMA-S cells (30) transfected by the HhD construct were loaded with various concentrations of UP II peptides and then reacted with anti-HLA antibody. High affinity binding was shown for all 7 peptides by FACS analyses (FIG. 1).

RMA-S-HhD cells [3] = experiment: CTL from HhD mice immunized with tumor extracted peptides or DU145-HhD cells against loaded RMA-S-HhD target cells; format: cell-based; conditions: for recognition and lysis of peptide loaded targets by anti-tumor extract CTL: CTL against breast tumor peptide extracts, E:T 50:1
Method: as §1
as §2, with “Cultures were terminated by centrifugation at 1,000 rpm for 10 minutes at 4° C.” left out
CTL induced in HhD mice recognize the same UP II peptides as human PBL: The immunogenicity of Uroplakin homologue peptides was also evaluated in a mouse model, in which the murine MHC class I genes are not expressed (D^b−/−, β2-microglobulin −/−, double knockout) and which is transgenic for a HLA-A2 and human β2-microglobulin monochain (HhD mice). The advantage of a HLA-A2 transgenic mouse model is that CTL epitopes can be detected more easily and reproducibly, without lengthy and repeated in vitro stimulations. […]

prostate cancer = conditions: DC based vaccine, 51 prostate cancer patients, HLA-A2; cited from earlier work
T2 cells = experiment: CTL assay with patients' PBL resensitized with pooled TCC extracted peptides; format: cell-based, human; conditions: CTL from TCC patients' PBL

Sequence: AILCWTFWV (listed as Homo sapiens) [Uroplakin Ib/B1]
- ability to evoke specific CTL responses (lysis of peptide-loaded target cells) (RMA-S-HhD cells [1]): could elicit lymphocytes which specifically lysed target cells

- peptide binding to HhD, stabilization of cell surface HhD (FACS) [2]: higher binding affinity
Sequence: ALASTAPPV (listed as Homo sapiens) [MUC-1/E6]
- lysis of breast carcinoma line HhD transfectant (MDA-MB-157-HhD) relative to parental cells (MDA-MB-157-HhD cells): Preferential lysis
- recognition and lysis of peptide loaded targets by anti-tumor extract CTL (RMA-S-HhD cells [3]): recognized and lysed
- lysis of RMA-S-HhD target cells loaded with MUC-1 peptide (RMA-S-HhD cells [1]): 15%

Sequence: ALFDIESKV (listed as Homo sapiens) [PSMA5]
- patients responding by decreased levels of serum PSA (prostate cancer): 7 patients

Sequence: FILMFIVYA (listed as Homo sapiens) [Uroplakin Ib/B2]
- ability to evoke specific CTL responses (lysis of peptide-loaded target cells) (RMA-S-HhD cells [1]): could elicit lymphocytes which specifically lysed target cells

Sequence: FLLVGFAGA (listed as Homo sapiens) [Uroplakin III/3.3]
- ability to evoke specific CTL responses (lysis of peptide-loaded target cells) (RMA-S-HhD cells [1]): could elicit lymphocytes which specifically lysed target cells

Sequence: FLSFHISNL (listed as Homo sapiens) [MUC-1/F6]
- lysis of RMA-S-HhD target cells loaded with MUC-1 peptide (RMA-S-HhD cells [1]): 15%

Sequence: GLQHWVPEL (listed as Homo sapiens) [BA-46-7]
- lysis of RMA-S-HhD targets loaded with homologous BA-46 peptide (RMA-S-HhD cells [1]): 60%

Sequence: ILCWTFWVL (listed as Homo sapiens) [Uroplakin Ib/B5]
- ability to evoke specific CTL responses (lysis of peptide-loaded target cells) (RMA-S-HhD cells [1]): could elicit lymphocytes which specifically lysed target cells

Sequence: ILNAYLVRV (listed as Homo sapiens) [Uroplakin III/3.2]
- ability to evoke specific CTL responses (lysis of peptide-loaded target cells) (RMA-S-HhD cells [1]): could elicit lymphocytes which specifically lysed target cells

Sequence: KILLAYFIL (listed as Homo sapiens) [Uroplakin Ib/B6]
- ability to evoke specific CTL responses (lysis of peptide-loaded target cells) (RMA-S-HhD cells [1]): could elicit lymphocytes which specifically lysed target cells

Sequence: KMARFSYSV (listed as Homo sapiens) [Cripto-1/C1]
- lymphocyte response specifically lysing CRIPTO-1 peptide-loaded target cells (RMA-S-HhD cells [1]): can elicit lymphocyte response which specifically lyses CRIPTO-1 peptide-loaded target cells

Sequence: KMVRFSYSV (listed as Homo sapiens) [Cripto-1/C10]
- lymphocyte response specifically lysing CRIPTO-1 peptide-loaded target cells (RMA-S-HhD cells [1]): can elicit lymphocyte response which specifically lyses CRIPTO-1 peptide-loaded target cells

- peptide binding to HhD, stabilization of cell surface HhD (FACS) [2]: higher binding affinity
Sequence: LLLTVLTVV (listed as Homo sapiens) [MUC-1/D6]
- lysis of breast carcinoma line HhD transfectant (MDA-MB-157-HhD) relative to parental cells (MDA-MB-157-HhD cells): Preferential lysis
- recognition and lysis of peptide loaded targets by anti-tumor extract CTL (RMA-S-HhD cells [3]): recognized and lysed
- lysis of RMA-S-HhD target cells loaded with MUC-1 peptide (RMA-S-HhD cells [1]): 38%

Sequence: MLAGICLSI (listed as Homo sapiens) [Cripto-1/C12]
- lymphocyte response specifically lysing CRIPTO-1 peptide-loaded target cells (RMA-S-HhD cells [1]): can elicit lymphocyte response which specifically lyses CRIPTO-1 peptide-loaded target cells

Sequence: MLVGICLSI (listed as Homo sapiens) [Cripto-1/C8]
- lymphocyte response specifically lysing CRIPTO-1 peptide-loaded target cells (RMA-S-HhD cells [1]): can elicit lymphocyte response which specifically lyses CRIPTO-1 peptide-loaded target cells

Sequence: NLFETPVEA (listed as Homo sapiens) [BA-46-6]
- lysis of RMA-S-HhD targets loaded with homologous BA-46 peptide (RMA-S-HhD cells [1]): 40%

- peptide binding to HhD, stabilization of cell surface HhD (FACS) [2]: higher binding affinity
Sequence: NLTISDVSV (listed as Homo sapiens) [MUC-1/A7]
- lysis of breast carcinoma line HhD transfectant (MDA-MB-157-HhD) relative to parental cells (MDA-MB-157-HhD cells): Preferential lysis
- recognition and lysis of peptide loaded targets by anti-tumor extract CTL (RMA-S-HhD cells [3]): recognized and lysed
- lysis of RMA-S-HhD target cells loaded with MUC-1 peptide (RMA-S-HhD cells [1]): 30%

Sequence: RLLAALCGA (listed as Homo sapiens) [BA-46-9]
- lysis of RMA-S-HhD targets loaded with homologous BA-46 peptide (RMA-S-HhD cells [1]): 40%

Sequence: VLLSVAMFL (listed as Homo sapiens) [Uroplakin II/8]
- ability to evoke specific CTL responses (lysis of peptide-loaded target cells) (RMA-S-HhD cells [1]): could elicit lymphocytes which specifically lysed target cells

Sequence: YMDGTMSQV [Tyrosinase, reference compound]
- lysis of T2 cells loaded with nonspecific peptides (T2 cells): no lysis
- specific lysis of loaded RMA-S-HhD cells (RMA-S-HhD cells [3]; CTL from HhD mice immunized with breast tumor extract peptide, E:T 100:1): No lysis
- lysis of loaded RMA-S-HhD cells, lytic units (LU30) (RMA-S-HhD cells [1]; CTL from HhD mice immunized with human Uroplakin II peptides 1-7, substance loaded on targets): no lysis
- ability to evoke specific CTL responses (lysis of peptide-loaded target cells) (RMA-S-HhD cells [1]): no significant lysis
- lysis of targets loaded with nonspecific peptides (RMA-S-HhD cells [1]; overall, all immunized groups of Example 2): no lysis
